From patent US20070128669A1, “Serum-free expansion of cells in culture” (Institute for Chemical Genomics, priority 2005, published 2007)
Each block holds one molecule with its values, some of them ahead of it.

How the values were obtained:
CBP/β-catenin complex = biological target: T1, CBP/β-catenin complex (Mus musculus, UniProt P45481); test: Co-immunoprecipitation of β-catenin with CBP in P19 cells; format: cell-based; settings: Wnt3a, 10 μM, 24 hours
T1 construct: endogenous in cells; host or cells: P19 cells (nuclear fraction)
T1 sequence (P45481 2-2441 limits assumed, one chain of several): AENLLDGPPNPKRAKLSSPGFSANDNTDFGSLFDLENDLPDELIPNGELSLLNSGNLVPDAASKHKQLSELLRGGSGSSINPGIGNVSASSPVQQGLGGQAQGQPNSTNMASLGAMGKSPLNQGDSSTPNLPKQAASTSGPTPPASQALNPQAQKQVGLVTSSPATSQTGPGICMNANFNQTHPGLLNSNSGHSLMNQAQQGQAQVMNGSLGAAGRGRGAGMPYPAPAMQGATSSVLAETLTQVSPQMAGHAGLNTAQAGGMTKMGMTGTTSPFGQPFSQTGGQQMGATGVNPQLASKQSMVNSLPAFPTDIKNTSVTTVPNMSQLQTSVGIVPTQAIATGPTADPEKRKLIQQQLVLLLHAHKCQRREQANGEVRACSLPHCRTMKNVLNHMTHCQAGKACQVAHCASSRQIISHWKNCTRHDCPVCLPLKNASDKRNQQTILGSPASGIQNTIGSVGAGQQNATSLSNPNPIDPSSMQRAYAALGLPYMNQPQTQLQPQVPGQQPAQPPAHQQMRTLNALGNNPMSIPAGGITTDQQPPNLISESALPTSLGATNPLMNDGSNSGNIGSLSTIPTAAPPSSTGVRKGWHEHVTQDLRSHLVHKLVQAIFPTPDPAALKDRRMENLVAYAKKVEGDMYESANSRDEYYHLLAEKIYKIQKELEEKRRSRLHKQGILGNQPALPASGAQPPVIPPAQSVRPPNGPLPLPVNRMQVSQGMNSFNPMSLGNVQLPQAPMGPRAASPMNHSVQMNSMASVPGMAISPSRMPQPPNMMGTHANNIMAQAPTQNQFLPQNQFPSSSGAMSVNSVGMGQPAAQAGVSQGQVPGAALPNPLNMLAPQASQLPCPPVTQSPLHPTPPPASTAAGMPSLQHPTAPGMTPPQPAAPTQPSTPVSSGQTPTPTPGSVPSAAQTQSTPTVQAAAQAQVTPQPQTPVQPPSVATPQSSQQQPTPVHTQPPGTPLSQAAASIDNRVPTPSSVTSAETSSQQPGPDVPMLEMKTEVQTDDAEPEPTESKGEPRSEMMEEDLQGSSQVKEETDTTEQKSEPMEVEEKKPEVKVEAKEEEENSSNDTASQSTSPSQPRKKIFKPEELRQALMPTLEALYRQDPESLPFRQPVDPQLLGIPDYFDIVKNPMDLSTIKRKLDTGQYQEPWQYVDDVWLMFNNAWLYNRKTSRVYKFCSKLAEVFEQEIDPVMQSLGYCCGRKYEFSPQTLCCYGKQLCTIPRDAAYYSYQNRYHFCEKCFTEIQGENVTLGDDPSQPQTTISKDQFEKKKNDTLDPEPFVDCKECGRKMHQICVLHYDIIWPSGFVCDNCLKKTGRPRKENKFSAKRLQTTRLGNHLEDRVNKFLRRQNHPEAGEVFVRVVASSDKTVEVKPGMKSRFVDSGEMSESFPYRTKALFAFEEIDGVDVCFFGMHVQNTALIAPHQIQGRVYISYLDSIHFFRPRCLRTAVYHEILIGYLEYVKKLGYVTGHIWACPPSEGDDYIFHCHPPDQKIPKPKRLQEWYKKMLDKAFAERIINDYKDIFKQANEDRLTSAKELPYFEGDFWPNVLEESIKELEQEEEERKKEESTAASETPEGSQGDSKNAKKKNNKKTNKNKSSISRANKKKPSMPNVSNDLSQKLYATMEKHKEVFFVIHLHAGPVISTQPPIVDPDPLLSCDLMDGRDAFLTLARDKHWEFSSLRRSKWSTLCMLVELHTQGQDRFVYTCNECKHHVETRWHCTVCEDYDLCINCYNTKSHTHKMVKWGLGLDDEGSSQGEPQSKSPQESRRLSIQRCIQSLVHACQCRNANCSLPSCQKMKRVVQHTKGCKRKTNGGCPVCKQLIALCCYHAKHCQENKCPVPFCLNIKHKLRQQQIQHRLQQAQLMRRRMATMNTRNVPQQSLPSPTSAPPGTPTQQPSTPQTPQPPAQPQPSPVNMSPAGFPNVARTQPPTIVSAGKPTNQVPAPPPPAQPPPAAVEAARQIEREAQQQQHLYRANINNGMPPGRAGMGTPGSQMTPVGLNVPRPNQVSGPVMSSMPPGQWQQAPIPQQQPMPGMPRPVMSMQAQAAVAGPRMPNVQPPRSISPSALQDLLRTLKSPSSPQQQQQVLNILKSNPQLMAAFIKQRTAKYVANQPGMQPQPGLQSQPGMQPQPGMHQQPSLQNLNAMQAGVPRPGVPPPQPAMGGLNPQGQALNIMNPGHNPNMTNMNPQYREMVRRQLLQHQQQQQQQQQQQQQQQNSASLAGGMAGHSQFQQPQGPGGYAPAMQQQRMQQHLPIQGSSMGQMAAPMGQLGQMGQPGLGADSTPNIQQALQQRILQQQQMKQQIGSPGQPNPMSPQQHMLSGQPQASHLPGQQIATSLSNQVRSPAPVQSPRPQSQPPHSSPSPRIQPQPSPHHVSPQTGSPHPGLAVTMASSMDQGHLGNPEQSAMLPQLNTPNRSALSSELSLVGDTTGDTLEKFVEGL
Description: (§1) Co-immunoprecipitation of β-catenin with CBP or p300 in P19 cells. Co-immunoprecipitation was performed as described in (27). Briefly, P19 cells were treated with 10 μM ICG-001 or 10 μM IQ-1 (control DMSO was 0.025%) for 24 hours, after which they were washed and lysed […]. Nuclear fraction was isolated and precleared with antibodies to CBP(A-22) or p300(N-15). β-catenin was detected using a mouse monoclonal antibody (Becton Dickinson) at a dilution of 1:5000.

p300/β-catenin complex = test: Co-immunoprecipitation of β-catenin with p300 in P19 cells; format: cell-based; settings: Wnt3a, 10 μM, 24 hours
Description: as §1

C2C12 myoblasts = test: Differentiation of C2C12 myoblasts in growth medium; format: cell-based; settings: 10 μM in growth medium
Description: FIG. 12. FIG. 12 illustrates that differentiation of C2C12 myoblasts was induced by 10 μM ICG-001 in growth medium, similar to differentiation medium.

[1] = test system: Nanog gene expression in ESCs; test: Real-time RT-PCR for Nanog in feeder-free ESCs; format: cell-based, mouse; settings: feeder-free ESCs; IQ-1 4 μg/ml or LIF 1000 U/ml, 21 hrs
Description: FIG. 2. […] Real-time RT-PCR for Nanog was performed. The control expression level of Nanog at day 0 was set at 1. FIG. 2B, removal of IQ-1 decreases Nanog gene expression in ESCs. IQ-1 was removed from ESCs which had been cultured under feeder-free system and in the presence of IQ-1 (4 μg/ml), for three days. At the end of this period, mRNA was isolated and real-time RT-PCR was performed to assay for Nanog gene expression. FIG. 2C, effects of IQ-1 were not mediated through Stat3 signaling pathway as judged by luciferase reporter assay. Feeder-free ESCs, transfected with the pSTAT3-TA-Luc reporter, were exposed to IQ-1 at the indicated doses, or LIF. All error bars represent mean±SD.
Real-time RT-PCR. Total RNA was isolated and reverse-transcribed using SuperScript III (Invitrogen). Real-time RT-PCR (Sybr Green; BioRad) was performed using with the gene-specific primers: […]

Stat3 signaling pathway = test: pSTAT3-TA-Luc luciferase reporter assay in ESCs; format: cell-based, mouse; settings: 24 hours exposure
Description: Transfection and Luciferase assay. ESCs were cultured in 96-well cell culture dishes coated with a 0.1% aqueous gelatin solution and transfected with 0.2 μg/well of pSTAT3-TA-Luc (CLONTECH), using Lipofectamine 2000 (Invitrogen). After 6 hours, cells were washed and exposed to either IQ-1 at the indicated doses, or LIF, for 24 hours. Transfection efficiencies were normalized with pRL-null luciferase plasmid. Luciferase assays were performed with the DUAL-Luciferase Reporter Assay System (Promega).

ESCs = test: Long term feeder-free culture of ESCs in serum-free (15% KSR) media; format: cell-based, mouse
Description: FIG. 7. […] ESCs were cultured in 15% KSR, 4 μg/ml of IQ-1 and 100 ng/ml Wnt3a. ESCs were passaged 2-3 times per week at 1×10^5-1×10^6 cells per 6 cm dish and cells were counted.
FIG. 8. […] AP activity of ESCs cultured for 7 days in IQ-1 containing media supplemented with 15% FCS or 15% KSR. […] (Error bars represent ±S.D.)
FIG. 9. […] Over the 42-day culture period, ESCs cultured in the media in the presence of IQ-1 and Wnt3a maintain expression of the pluripotency markers, (a) Nanog, (b) Oct3/4 and (c) Rex-1. The expression level on day 0 was set as 1.
Cell culture. ESCs, D3ES (ATCC CRL-1934) were maintained on Mitomycin C treated MEFs in mouse ESC medium containing DMEM (Invitrogen) supplemented with 15% FBS (Invitrogen), 0.1 mM MEM nonessential amino acids (Invitrogen), 0.1 mM 2-mercaptoethanol (Sigma), 2 mM L-glutamine (Invitrogen) and 1,000 U/ml LIF (CHEMICON). To remove MEFs, cells were collected by trypsinization and plated on gelatin-coated culture dishes for 20 min. Non-adherent cells consisting mainly of ESCs were replated on gelatin-coated culture dishes again. Non-adherent cells were used for further experiments. P19 cells were cultured according to conditions recommended by the ATCC. Cells were incubated at 37° C. in a 5% CO2 incubator. Purified Wnt3a was purchased (R&D Systems).

Molecule: O=C1[C@H](Cc2ccc(O)cc2)N2C(=O)CCN(C(=O)NCc3ccccc3)[C@H]2CN1Cc1cccc2ccccc12 [ICG-001, reference compound]
relative amount of β-catenin associated with CBP (CBP/β-catenin complex): at the expense of the CBP/β-catenin interaction | p300/β-catenin interaction (p300/β-catenin complex): significantly enhanced the p300/β-catenin interaction | differentiation of C2C12 myoblasts (C2C12 myoblasts): induced the differentiation of C2C12 myoblasts

Stat3/luciferase expression (Stat3 signaling pathway): elicited a significant response
Molecule: LIF: cytokine leukemia inhibitory factor (CHEMICON)
Nanog expression [1]: only slightly increased Nanog levels

B1: Wnt3a: purified Wnt3a protein purchased from R&D Systems (protein, UniProt P56704 19-352, looked up)
Protein Wnt-3a: SYPIWWSLAVGPQYSSLGSQPILCASIPGLVPKQLRFCRNYVEIMPSVAEGIKIGIQECQHQFRGRRWNCTTVHDSLAIFGPVLDKATRESAFVHAIASAGVAFAVTRSCAEGTAAICGCSSRHQGSPGKGWKWGGCSEDIEFGGMVSREFADARENRPDARSAMNRHNNEAGRQAIASHMHLKCKCHGLSGSCEVKTCWWSQPDFRAIGDFLKDKYDSASEMVVEKHRESRGWVETLRPRYTYFKVPTERDLVYYEASPNFCEPNPETGSFGTRDRTCNVSSHGIDGCDLLCCGRGHNARAERRREKCRCVFHWCCYVSCQECTRVYDVHTCK
AP activity of ESCs on addition of Wnt3a to IQ-1 containing 15% KSR media (ESCs; 7 days, IQ-1 containing media, 15% KSR): increases AP activity | ESC proliferation, Wnt3a alone (ESCs; KSR media): induced proliferation | expression of stem cell markers Oct4, Nanog, Rex1, Wnt3a alone (ESCs; KSR media): not sufficient to maintain the expression | maintenance of undifferentiated status of ESCs, agent alone (ESCs; KSR media, single agent): Neither Wnt3a nor IQ-1 alone was sufficient
